Where “and” joins values, the source holds several entries; their conditions need not be identical. Equal values may be shown once. Inconclusive results and toxic doses are left out. Rule for the calls: active = survival T/C of 150% or more; inactive = T/C below 125% in these data.
Tested on: P388 leukemia ip, CD2F1 mice, survival T/C
Experiment: NCI In Vivo Anticancer Drug Screen. Data for tumor model P388 Leukemia (intraperitoneal) in CD2F1 (CDF1) mice
Details: endpoint: median survival time, higher = longer survival
How it was run: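 Mice carrying the transplanted tumor received test compound or vehicle. Survival was recorded in each group, and the value is the treated-group measurement divided by that of the vehicle-treated control group.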

[1] = dose: 50.0 mg/kg/injection, schedule: Q01DX009 (ip), vehicle: saline with Tween-80
[2] = dose: 100.0 mg/kg/injection, schedule: Q01DX009 (ip), vehicle: saline with Tween-80
[3] = dose: 200.0 mg/kg/injection, schedule: Q01DX009 (ip), vehicle: saline with Tween-80
[4] = dose: 50.0 mg/kg/injection, schedule: Q01DX005 (ip), vehicle: Klucel (hydroxypropylcellulose) (HPC)
[5] = dose: 100.0 mg/kg/injection, schedule: Q01DX005 (ip), vehicle: Klucel (hydroxypropylcellulose) (HPC)
[6] = dose: 50.0 mg/kg/injection, schedule: Q01DX009 (ip), vehicle: Klucel (hydroxypropylcellulose) (HPC)
[7] = dose: 100.0 mg/kg/injection, schedule: Q01DX009 (ip), vehicle: Klucel (hydroxypropylcellulose) (HPC)
[8] = dose: 200.0 mg/kg/injection, schedule: Q01DX009 (ip), vehicle: Klucel (hydroxypropylcellulose) (HPC)
[9] = dose: 100.0 mg/kg/injection, schedule: Q04DX002 (ip), vehicle: saline with Tween-80
[10] = dose: 200.0 mg/kg/injection, schedule: Q04DX002 (ip), vehicle: saline with Tween-80
[11] = dose: 12.5 mg/kg/injection, schedule: Q01DX009 (ip), vehicle: saline with Tween-80
[12] = dose: 25.0 mg/kg/injection, schedule: Q01DX009 (ip), vehicle: saline with Tween-80

Measured: T/C

CC(=O)OCC(=O)[C@@]1(O)CC[C@H]2[C@@H]3CCC4=CC(=O)[C@H](C)C[C@]4(C)[C@H]3[C@@H](O)C[C@@]21C
inactive: dose: 100.0 mg/kg/injection, schedule: Q04DX003 (ip), vehicle: other 100 % of control | dose: 200.0 mg/kg/injection, schedule: Q04DX003 (ip), vehicle: other 100 % of control | dose: 400.0 mg/kg/injection, schedule: Q04DX003 (ip), vehicle: other 115 % of control

COc1cc(/C=N/Nc2ccc([N+](=O)[O-])cc2)cc(OC)c1OC
inactive: dose: 100.0 mg/kg/injection, schedule: Q04DX003 (ip), vehicle: saline with Tween-80 95 % of control | dose: 400.0 mg/kg/injection, schedule: Q04DX003 (ip), vehicle: saline with Tween-80 87 % of control

NC(N)=O.NC(N)=O.NC(N)=O.NC(N)=O.NC(N)=O.NC(N)=O.[Fe+3].[O-][Cl+3]([O-])([O-])O
inactive: [1] 96 % of control | [2] 91 % of control | [3] 102 % of control

FC(F)(F)SN1COCN(SC(F)(F)F)C1
inactive: dose: 30.0 mg/kg/injection, schedule: Q01DX005 (ip), vehicle: saline 96 % of control | dose: 60.0 mg/kg/injection, schedule: Q01DX005 (ip), vehicle: saline 100 % of control | dose: 120.0 mg/kg/injection, schedule: Q01DX005 (ip), vehicle: saline 99 % of control and 102 % of control

CN1C(=O)c2ccccc2NC12CCN(Cc1ccccc1)CC2
inactive: dose: 25.0 mg/kg/injection, schedule: Q01DX005 (ip), vehicle: Klucel (hydroxypropylcellulose) (HPC) 103 % of control | [4] 95 % of control | [5] 97 % of control

N#Cc1ccc(OC(=O)Nc2ccc(Br)cc2)cc1
inactive: dose: 60.0 mg/kg/injection, schedule: Q01DX005 (ip), vehicle: Klucel (hydroxypropylcellulose) (HPC) 115 % of control | dose: 120.0 mg/kg/injection, schedule: Q01DX005 (ip), vehicle: Klucel (hydroxypropylcellulose) (HPC) 114 % of control | dose: 240.0 mg/kg/injection, schedule: Q01DX005 (ip), vehicle: Klucel (hydroxypropylcellulose) (HPC) 108 % of control

Cc1ccc(NC(=O)Oc2ccc(F)cc2Cl)c([N+](=O)[O-])c1
inactive: [1] 112 % of control | [2] 118 % of control

O=C1OCCOCCOCCOCCOCCOC(=O)C1c1ccccc1
inactive: [6] 102 % of control | [7] 101 % of control | [8] 100 % of control

O=C(N1CCN(C(=O)S(=O)(=O)c2ccccc2)CC1)S(=O)(=O)c1ccccc1
inactive: [6] 92 % of control | [7] 100 % of control | [8] 100 % of control

Cc1ccc(N=Nc2c(O)n(-c3ccc(C)cc3)c(=S)n(-c3ccc(Br)cc3)c2=O)cc1
inactive: [9] 99 % of control | [10] 102 % of control | dose: 400.0 mg/kg/injection, schedule: Q04DX002 (ip), vehicle: saline with Tween-80 105 % of control

C1CCN(P2(N3CCCCC3)=NP(N3CCCCC3)(N3CCCCC3)=NP(N3CCCCC3)(N3CCCCC3)=NP(N3CCCCC3)(N3CCCCC3)=N2)CC1
inactive: dose: 50.0 mg/kg/injection, schedule: Q01DX005 (ip), vehicle: saline with Tween-80 96 % of control | dose: 100.0 mg/kg/injection, schedule: Q01DX005 (ip), vehicle: saline with Tween-80 88 % of control

CC1=CC(O/C=C2\C(=O)OC3C=CCC23)OC1=O (stereo not drawn)
inactive: dose: 100.0 mg/kg/injection, schedule: Q04DX002 (ip), vehicle: suspension in saline 99 % of control | dose: 200.0 mg/kg/injection, schedule: Q04DX002 (ip), vehicle: suspension in saline 98 % of control | dose: 400.0 mg/kg/injection, schedule: Q04DX002 (ip), vehicle: suspension in saline 111 % of control

C[N+](C)(C)c1ccc(Cc2ccc([N+](C)(C)C)cc2)cc1
inactive: dose: 6.3 micrograms/kg/injection, schedule: Q04DX002 (ip), vehicle: saline 107 % of control | dose: 12.5 micrograms/kg/injection, schedule: Q04DX002 (ip), vehicle: saline 111 % of control | dose: 25.0 micrograms/kg/injection, schedule: Q04DX002 (ip), vehicle: saline 103 % of control

CCOC(=O)C1(C(=O)OCC)COC(C)(C)OC1
inactive: [11] 105 % of control | [12] 101 % of control and 97 % of control | [1] 102 % of control and 106 % of control | [2] 106 % of control and 108 % of control | dose: 100.0 mg/kg/injection, schedule: Q04DX003 (ip), vehicle: saline 100 % of control | [3] 98 % of control and 103 % of control | dose: 200.0 mg/kg/injection, schedule: Q04DX003 (ip), vehicle: saline 101 % of control | dose: 400.0 mg/kg/injection, schedule: Q04DX003 (ip), vehicle: saline 100 % of control | dose: 600.0 mg/kg/injection, schedule: Q04DX003 (ip), vehicle: saline 101 % of control

Cc1ccc(-c2c3c(c(-c4ccc(C)cc4)c(-c4ccccc4)c2-c2ccccc2)-c2ccccc2C3)cc1
inactive: [11] 98 % of control | [12] 98 % of control | [1] 99 % of control and 89 % of control

C=C(C)C1CC2=C(C(=O)OC)C=C(O2)C(C(=C)C)C2C=C(C(=O)O2)C2OC12 (stereo not drawn)
inactive: dose: 12.5 mg/kg/injection, schedule: Q01DX005 (ip), vehicle: saline + alcohol 99 % of control | dose: 25.0 mg/kg/injection, schedule: Q01DX005 (ip), vehicle: saline + alcohol 103 % of control | dose: 50.0 mg/kg/injection, schedule: Q01DX005 (ip), vehicle: saline + alcohol 97 % of control | dose: 100.0 mg/kg/injection, schedule: Q01DX005 (ip), vehicle: saline + alcohol 108 % of control

O=C1c2cccc(NCCNCCO)c2C(=O)c2cccc(Cl)c21
inactive: dose: 5.0 mg/kg/injection, schedule: Q01DX009 (ip), vehicle: acid diluted with saline 98 % of control | dose: 10.0 mg/kg/injection, schedule: Q01DX009 (ip), vehicle: acid diluted with saline 113 % of control | dose: 20.0 mg/kg/injection, schedule: Q01DX009 (ip), vehicle: acid diluted with saline 115 % of control | dose: 40.0 mg/kg/injection, schedule: Q01DX009 (ip), vehicle: acid diluted with saline 113 % of control | dose: 80.0 mg/kg/injection, schedule: Q01DX009 (ip), vehicle: acid diluted with saline 124 % of control | dose: 160.0 mg/kg/injection, schedule: Q01DX009 (ip), vehicle: acid diluted with saline 120 % of control

CC(CN(C)C)Nc1c2ccccc2nc2cccc([N+](=O)[O-])c12 (stereo not drawn)
inactive: dose: 0.04 mg/kg/injection, schedule: Q01DX009 (ip), vehicle: saline 87 % of control | dose: 0.09 mg/kg/injection, schedule: Q01DX009 (ip), vehicle: saline 101 % of control | dose: 0.19 mg/kg/injection, schedule: Q01DX009 (ip), vehicle: saline 102 % of control and 113 % of control | dose: 0.39 mg/kg/injection, schedule: Q01DX009 (ip), vehicle: saline 109 % of control

c1ccc2c(c1)ccc1c(NCCCCNc3c4ccccc4nc4c3ccc3ccccc34)c3ccccc3nc12
inactive: dose: 6.25 mg/kg/injection, schedule: Q01DX009 (ip), vehicle: saline with Tween-80 107 % of control | [11] 107 % of control

CCCCCCCC/C=C\CCCCCCCC[N+]1([O-])CCOCC1
inactive: dose: 50.0 mg/kg/injection, schedule: Q01DX009 (ip), vehicle: saline 102 % of control | dose: 100.0 mg/kg/injection, schedule: Q01DX009 (ip), vehicle: saline 116 % of control

CN(N=C1C(N)=NN=C1N)c1ccccc1
inactive: dose: 50.0 mg/kg/injection, schedule: Q04DX002 (ip), vehicle: saline with Tween-80 106 % of control | [9] 93 % of control | [10] 100 % of control

CSc1nccn2cnnc12
inactive: dose: 100.0 mg/kg/injection, schedule: Q01DX001 (ip), vehicle: Klucel (hydroxypropylcellulose) (HPC) 101 % of control | dose: 200.0 mg/kg/injection, schedule: Q01DX001 (ip), vehicle: Klucel (hydroxypropylcellulose) (HPC) 104 % of control | dose: 400.0 mg/kg/injection, schedule: Q01DX001 (ip), vehicle: Klucel (hydroxypropylcellulose) (HPC) 101 % of control

CCC[CH2][Hg][O]C(C)=O
inactive: dose: 2.0 mg/kg/injection, schedule: Q01DX009 (ip), vehicle: other 95 % of control | dose: 3.0 mg/kg/injection, schedule: Q01DX009 (ip), vehicle: other 100 % of control | dose: 4.5 mg/kg/injection, schedule: Q01DX009 (ip), vehicle: other 113 % of control

O=C(Nc1ccc(N=C=S)cc1Cl)c1cc(Cl)cc(Cl)c1O
inactive: [6] 119 % of control | [7] 122 % of control

CCCCCCCCCCCCCC(=O)Nc1ncc([N+](=O)[O-])s1
inactive: [6] 94 % of control | [7] 94 % of control | [8] 100 % of control

CN1CCC/C1=C1/C(=O)Nc2ccc(Cl)cc21
inactive: [4] 108 % of control | [5] 107 % of control | dose: 200.0 mg/kg/injection, schedule: Q01DX005 (ip), vehicle: Klucel (hydroxypropylcellulose) (HPC) 102 % of control
